In paper PMC8776995 (Frontiers in Chemistry, 2022):
Where “and” joins values, the source holds several entries; their conditions need not be identical. Equal values may be shown once.

What was measured:
[1] = tested on: AKT phosphorylation (S473) in H460 cells; test: Western blot, p-AKT/AKT in H460; conditions: H460, 10 uM
Description: (§1) We also performed western blot analysis to evaluate the impact of e4 and e12 on EGFR signaling in PC-9 and H460 cells.
(§2) H460 cells were seeded in six-well plates with serum-free medium overnight, and then treated complete medium containing 0.1% DMSO, various concentrations (0.1, 1 and 10 μM) of either compound e4 or e12 for 2 h, respectively. […] Then the H460 cells were treated with complete medium containing EGF (10 ng/ml) for 5 min. Then the cells were harvested and washed with PBS, centrifuged, resuspended in 100–200 μl of RIPA lysis buffer containing Protease and Phosphatase Inhibitor Cocktail (1X), and then centrifuged for 5 min at 12,000 rpm at 4°C. The supernatant was used for protein analysis. […] Then the membrane was washed 5 min (X3) and incubated at 1:3,000 dilution of anti-rabbit secondary antibodies or 1:1,000 dilution of anti-mouse secondary antibodies for 1 h at RT. After washing with TBST 5 min (X3), protein bands were developed by chemiluminescence. The protein levels were quantified by the gray values of the bands in the resulting images by ImageJ, and the control group was used as the standard. […] The PC-9 cells were harvested and analyzed as above.

wild-type EGFR = wild-type EGFR (Homo sapiens, UniProt P00533); test: EGFR kinase assay (ELISA); conditions: for A450: raw ELISA absorbance
A549 cells = test: CCK-8 antiproliferation assay, A549; conditions: for Inhibitory efficacy: A549 cells
[2] = tested on: AKT phosphorylation (S473) in PC-9 cells; test: Western blot, p-AKT/AKT in PC-9; conditions: PC-9, 10 uM
Description: as §1, §2

H460 cells = test: CCK-8 antiproliferation assay, H460
PC-9 cells = test: CCK-8 antiproliferation assay, PC-9; conditions: Homo sapiens, PC-9, 48 h, read-out: IC50 (μM) PC-9
PC-9 xenograft = test: In vivo antitumor activity, PC-9 xenograft in NSG mice; set-up: species or system mouse; conditions: Day19, individual animals
Description: The mouse body mass was recorded as well.

[3] = tested on: EGFR phosphorylation (Tyr1068) in PC-9 cells; test: Western blot, p-EGFR/EGFR in PC-9; conditions: PC-9, 10 uM
Description: as §1, §2

[4] = tested on: EGFR phosphorylation (Tyr1068) in H460 cells; test: Western blot, p-EGFR/EGFR in H460; conditions: H460, 10 uM
Description: as §1, §2

H1975 cells = test: CCK-8 antiproliferation assay, H1975

Sequence of wild-type EGFR (P00533 25-1210): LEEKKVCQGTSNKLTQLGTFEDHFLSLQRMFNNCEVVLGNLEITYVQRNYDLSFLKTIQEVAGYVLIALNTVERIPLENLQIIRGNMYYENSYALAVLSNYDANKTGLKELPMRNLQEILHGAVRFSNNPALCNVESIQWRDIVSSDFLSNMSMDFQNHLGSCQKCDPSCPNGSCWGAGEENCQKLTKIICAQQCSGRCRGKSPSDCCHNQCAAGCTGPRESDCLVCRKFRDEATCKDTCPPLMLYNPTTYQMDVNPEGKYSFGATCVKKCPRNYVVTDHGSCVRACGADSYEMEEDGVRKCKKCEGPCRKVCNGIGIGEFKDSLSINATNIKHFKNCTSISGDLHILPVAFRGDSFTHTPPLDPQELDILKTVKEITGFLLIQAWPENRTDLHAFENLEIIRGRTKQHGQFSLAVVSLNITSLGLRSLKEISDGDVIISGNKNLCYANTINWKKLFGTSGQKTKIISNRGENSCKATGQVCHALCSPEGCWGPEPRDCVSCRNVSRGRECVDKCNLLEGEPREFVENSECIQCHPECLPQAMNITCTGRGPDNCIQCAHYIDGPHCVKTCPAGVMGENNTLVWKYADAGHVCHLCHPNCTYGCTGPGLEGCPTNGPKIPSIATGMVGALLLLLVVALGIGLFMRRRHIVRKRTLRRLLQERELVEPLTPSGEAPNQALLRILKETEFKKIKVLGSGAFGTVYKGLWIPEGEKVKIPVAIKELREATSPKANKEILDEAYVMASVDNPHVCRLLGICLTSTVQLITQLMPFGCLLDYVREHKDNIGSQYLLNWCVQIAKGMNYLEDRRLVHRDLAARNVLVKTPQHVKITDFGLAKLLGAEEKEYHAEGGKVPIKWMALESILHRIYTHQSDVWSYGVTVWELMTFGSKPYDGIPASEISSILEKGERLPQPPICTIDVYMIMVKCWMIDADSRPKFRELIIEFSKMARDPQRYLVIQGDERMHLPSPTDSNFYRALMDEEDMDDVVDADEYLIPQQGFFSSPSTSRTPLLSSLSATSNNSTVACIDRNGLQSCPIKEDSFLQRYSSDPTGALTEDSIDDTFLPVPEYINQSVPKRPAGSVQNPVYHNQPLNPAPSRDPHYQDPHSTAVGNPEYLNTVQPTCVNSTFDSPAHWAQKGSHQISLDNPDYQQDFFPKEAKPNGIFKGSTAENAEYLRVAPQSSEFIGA

SMILES: COCCOc1cc2ncnc(Nc3cccc(-c4cn(-c5ccccc5)nn4)c3)c2cc1OCCOC [e15, [6,7-Bis-(2-methoxy-ethoxy)-quinazolin-4-yl]-[3-(1-phenyl-1H-[1,2,3]triazol-4-yl)-phenyl]-amine]
- p-AKT/AKT ([1]; band density ratio): 0.08408
- p-AKT/AKT relative to DMSO ([1]; ratio normalised to DMSO): 0.08452
- IC50 (wild-type EGFR; IC50 (μM) EGFR, ELISA, 3 μmol/L ATP): 0.09 µM
- inhibition at 100 fM (wild-type EGFR; concentration 0.0001 nM (reference for normalisation), one value per replicate column): 0%
- Inhibition (wild-type EGFR; concentration 0.03 nM, one value per replicate column, 3e-05 µM): 3.563 and 0.1327
- Inhibition (wild-type EGFR; concentration 0.3 nM, one value per replicate column, 0.0003 µM): 14.0143 and 0.8626
- inhibition at 0.003 µM (wild-type EGFR; concentration 3 nM, one value per replicate column): 33.2%
- Inhibition (wild-type EGFR; concentration 3 nM, one value per replicate column, 0.003 µM): 30.0597
- inhibition at 0.03 µM (wild-type EGFR; concentration 30 nM, one value per replicate column): 44.4%
- Inhibition (wild-type EGFR; concentration 30 nM, one value per replicate column, 0.03 µM): 47.6443
- inhibition at 0.3 µM (wild-type EGFR; concentration 300 nM, one value per replicate column): 59.3%
- Inhibition (wild-type EGFR; concentration 300 nM, one value per replicate column, 0.3 µM): 58.7259
- inhibition at 3 µM (wild-type EGFR; concentration 3000 nM, one value per replicate column): 68.1%
- Inhibition (wild-type EGFR; concentration 3000 nM, one value per replicate column, 3 µM): 67.4851
- inhibition at 30 µM (wild-type EGFR; concentration 30000 nM, one value per replicate column): 86.9%
- Inhibition (wild-type EGFR; concentration 30000 nM, one value per replicate column, 30 µM): 93.1652
- A450 (wild-type EGFR; concentration 0.0001 nM): 1.566 and 1.805
- A450 (wild-type EGFR; concentration 0.03 nM): 1.521 and 1.803
- A450 (wild-type EGFR; concentration 0.3 nM): 1.389 and 1.792
- A450 (wild-type EGFR; concentration 3 nM): 1.147 and 1.352
- A450 (wild-type EGFR; concentration 30 nM): 1.005 and 1.087
- A450 (wild-type EGFR; concentration 300 nM): 0.817 and 0.92
- A450 (wild-type EGFR; concentration 3000 nM): 0.706 and 0.788
- A450 (wild-type EGFR; concentration 30000 nM): 0.469 and 0.401
- Inhibitory efficacy (A549 cells; 1uM, given as fraction, Repeat 1-3): 0.1367 and 0.1269
- Inhibitory efficacy (A549 cells; 2uM, given as fraction, Repeat 1-3): 0.193 and 0.2629
- Inhibitory efficacy (A549 cells; 4uM, given as fraction, Repeat 1-3): 0.2103 and 0.2621
- Inhibitory efficacy (A549 cells; 8uM, given as fraction, Repeat 1-3): 0.2141 and 0.1622
- Inhibitory efficacy (A549 cells; 16uM, given as fraction, Repeat 1-3): 0.2043 and 0.1059
- IC50 (A549 cells; Homo sapiens, A549, 48 h, read-out: IC50 (μM) A549, CCK-8, 48 h, average ± SD of three independent experiments): > 100 µM
- inhibition at 1 µM (A549 cells; Homo sapiens, A549, read-out: Inhibitory efficacy, A549 cells, 1uM, given as fraction, Repeat 1-3): 11.7%
- inhibition at 2 µM (A549 cells; Homo sapiens, A549, read-out: Inhibitory efficacy, A549 cells, 2uM, given as fraction, Repeat 1-3): 15.2%
- inhibition at 4 µM (A549 cells; Homo sapiens, A549, read-out: Inhibitory efficacy, A549 cells, 4uM, given as fraction, Repeat 1-3): 18.5%
- inhibition at 8 µM (A549 cells; Homo sapiens, A549, read-out: Inhibitory efficacy, A549 cells, 8uM, given as fraction, Repeat 1-3): 14.6%
- inhibition at 16 µM (A549 cells; Homo sapiens, A549, read-out: Inhibitory efficacy, A549 cells, 16uM, given as fraction, Repeat 1-3): 11.9%
- p-AKT/AKT ([2]; band density ratio): 0.03365
- p-AKT/AKT relative to DMSO ([2]; ratio normalised to DMSO = 1): 0.03231
- Inhibitory efficacy (H460 cells; H460 cells, 2uM, given as fraction, Repeat 1-3): 0.04615 and 0.05031
- IC50 (H460 cells; Homo sapiens, NCI-H460, 48 h, read-out: IC50 (μM) H460, CCK-8, 48 h, average ± SD of three independent experiments): > 100 µM
- inhibition at 2 µM (H460 cells; Homo sapiens, NCI-H460, read-out: Inhibitory efficacy, H460 cells, 2uM, given as fraction, Repeat 1-3): 5.86%
- IC50 (PC-9 cells): > 100 µM
- Tumor weight (PC-9 xenograft): 0.04 g and 0.03 g and 0.02 g and 0.01 g
- p-EGFR/EGFR ([3]; band density ratio): 0.2353
- p-EGFR/EGFR relative to DMSO ([3]; ratio normalised to DMSO = 1): 0.2103
- p-EGFR/EGFR ([4]; band density ratio): 0.02304
- p-EGFR/EGFR relative to DMSO ([4]; ratio normalised to DMSO): 0.02768
- Inhibitory efficacy (H1975 cells; H1975 cells, 8uM, given as fraction, Repeat 1-3): 0.07522 and 0.1057
- IC50 (H1975 cells; Homo sapiens, NCI-H1975, 48 h, read-out: IC50 (μM) H1975, CCK-8, 48 h, average ± SD of three independent experiments): > 100 µM
- inhibition at 8 µM (H1975 cells; Homo sapiens, NCI-H1975, read-out: Inhibitory efficacy, H1975 cells, 8uM, given as fraction, Repeat 1-3): 6.27%
